Measured values: PMC9092651, “Improving Thermostability and Catalytic Activity of Glycosyltransferase From Panax ginseng by Semi-Rational Design for Rebaudioside D Synthesis” (Frontiers in Bioengineering and Biotechnology, 2022)

Biological target: T1, EUGT11 (Oryza sativa, UniProt Q0DPB7)
T1 construct: gene Os03g0702000
T1 sequence (Q0DPB7 1-462): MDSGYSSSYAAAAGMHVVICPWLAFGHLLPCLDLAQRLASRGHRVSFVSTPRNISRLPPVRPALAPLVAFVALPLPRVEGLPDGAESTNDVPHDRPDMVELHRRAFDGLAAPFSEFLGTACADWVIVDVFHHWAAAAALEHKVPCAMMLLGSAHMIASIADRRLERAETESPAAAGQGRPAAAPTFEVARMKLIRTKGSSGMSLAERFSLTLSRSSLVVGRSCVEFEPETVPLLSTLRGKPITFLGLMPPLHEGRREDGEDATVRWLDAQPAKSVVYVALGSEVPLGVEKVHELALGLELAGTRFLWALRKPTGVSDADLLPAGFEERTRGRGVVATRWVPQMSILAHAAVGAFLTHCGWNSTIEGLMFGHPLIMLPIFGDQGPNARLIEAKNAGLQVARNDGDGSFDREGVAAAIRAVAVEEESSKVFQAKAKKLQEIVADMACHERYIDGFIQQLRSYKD
Assay: cell-free synthesised enzyme, HPLC product detection
Conditions: 2 mM UDP-glucose, 2 mM Reb A, 50 mM PBS pH 8.0, 35 °C, 12 h; positive control

C=C1C[C@@]23CC[C@H]4[C@@](C)(CCC[C@@]4(C)C(=O)O[C@@H]4O[C@H](CO)[C@@H](O)[C@H](O)[C@H]4O)[C@@H]2CC[C@]1(O[C@@H]1O[C@H](CO)[C@@H](O)[C@H](O[C@@H]2O[C@H](CO)[C@@H](O)[C@H](O)[C@H]2O)[C@H]1O[C@@H]1O[C@H](CO)[C@@H](O)[C@H](O)[C@H]1O)C3 [Reb A]
cell-free synthesised enzyme, HPLC product detection: the glycosylated product of Reb A catalyzed by EUGT11 had the same HPLC retention time
